# According to US8519007B2, “Use certain diterpene compounds in the treatment of androgen receptor-associated diseases” (Academia Sinica, priority 2008, dated 2013):
# Like-named read-outs stand apart in the source and are kept apart here.
# Columns and labels:
# LNCaP cells [1] = assay: Colony-forming growth assay; type: cell-based; details: Homo sapiens, 288 h, 12 days, read-out: IC50 (anti-proliferation potency), colony growth
# Protocol: (§1) FIGS. 3A-C. HDHS affects growth of PCa cells. A, Cell viability of different cell lines treated with vehicle (Ctrl) or indicated concentrations of HDHS for 48 h. The absorbance of the control group was defined as 100%. B, Colony-forming growth of LNCaP and 22Rv1 cells (AR-dependent PCa cells) and PC-3 cells (AR-independent PCa cells) in 24-well multi-dishes with indicated treatments for 12 days. The results were presented as percentage of growth with respect to control treatment of the same cell line. C, Photographs of different PCa cell lines growing on culture plates with designated treatments for […].
# (§2) The long-term effect of HDHS on the malignant growth of AR-dependent (22Rv1, and LNCaP) and AR-independent (PC-3) PCa cells was examined by colony-forming growth assay. […] The differential effect was also reflected in the morphology of treated cells.
# PC-3 cells [2] = assay: Colony-forming growth assay; type: cell-based; details: Homo sapiens, 288 h; PC-3, 12 days; read-out: IC50 (anti-proliferation potency), colony growth
# Protocol: as §1, §2
# LNCaP cells [3] = assay: Cell cycle distribution by propidium iodide flow cytometry; type: cell-based, human; details: 48 h
# Protocol: (§6) The cell cycle of treated cells was examined by flow cytometry after cellular staining with propidium iodide. 5×10^5 cells were seeded into 6-well multidishes with 10% FBS culture medium for 48 h. […] Cells were trypsinized thereafter, washed twice with cold PBS, and centrifuged. The pellet was suspended in cold PBS and 1 mL of 70% ethanol at 4° C. overnight, washed twice with cold PBS, and digested with RNase (100 μg/mL final concentration) and stained with propidium iodide (10 μg/mL final concentration) for 30 min and analyzed by flow cytometry (EPICS XL-MCL, Beckman Coulter, Inc., Fullerton, Calif.).
# PC-3 cells [4] = assay: as above; type: cell-based, human; details: 48 h
# Protocol: as §6
# LNCaP cells [5] = assay: Apoptosis by nucleosome release (cytoplasmic DNA fragmentation); type: cell-based, human; details: 5-10 μM, 24 h
# Protocol: (§3) FIGS. 4A-B. HDHS induces apoptosis in AR-dependent PCa cells. A, Apoptosis of cytoplasmic DNA fragmentation in different cell lines treated with vehicle or indicated concentrations of HDHS for 24 h. Difference between the indicated pair of treatments was tested for statistic significance as marked. *, P≦0.05; **, P≦0.01. B, Activation of caspases and PARP in HDHS-induced apoptosis of LNCaP cells.
# (§4) In light of the increase of sub-G1 populations by HDHS, apoptosis in treated cells was further analyzed via measurement of nucleosome release in PCa cells. […] 22Rv1 cells with AR expression are ablation-resistant but respond to androgen stimulation; HDHS led to their apoptosis.
# PC-3 cells [6] = assay: as above; type: cell-based, human; details: PC-3, 5-10 μM, 24 h
# Protocol: as §3, §4
# LNCaP cells [7] = assay: Western blot of caspases, PARP, p53 and Bcl-xL; type: cell-based, human; details: 10 μM
# Protocol: (§5) During apoptosis, various caspases are activated which are involved in the cleavage and […] a range of cellular substrates, including […] the DNA repair enzyme PARP (Herceg Z et al., Mol Cell Biol 1999;10:5124-33; Okada H et al., Nat Rev Cancer 2004; 4:592-603). In the presence of 10 μM HDHS, PARP cleavage was observed, and at the same time caspase-3 and -7 were activated by proteolytic cleavage (FIG. 4B, lane 5). […] In contrast, activation of caspase-3 and -7 or cleavage of PARP were not detected in PC-3 cells treated with 10 μM HDHS for 24 h (FIG. 4B, lane 10). Tumor suppressor p53 is a control for the G1 checkpoint and cell apoptosis, and LNCaP cells express wild-type p53 (van Bokhoven A et al., Prostate 2003; 57:205-25).
# PC-3 cells [8] = assay: Western blot of caspases and PARP; type: cell-based, human; details: PC-3, 10 μM, 24 h
# Protocol: as §5
# [9] = HDHS levels in plasma and tumors of treated nude mice (HPLC); type: in vivo; details: 24 h after the last of 24 doses; for concentration at 24 h after the last dose: athymic (nu/nu) nude, mouse, in vivo, read-out: HDHS level in plasma
# Protocol: 22Rv1 cells were derived from a castration-relapsed tumor of human PCa origin that represents a clinical limitation for hormonal therapy (Nagabhushan M, et al., Cancer Res 1996;56:3042-6; Sramkoski R M, et al., In Vitro Cell Dev Biol Anim 1999; 35:403-9). The potential of HDHS to inhibit growth of PCa in vivo was tested in athymic nude mice with 22Rv1 tumors. […]. All animal work was done in accordance with the protocol approved by the Institutional Animal Care and Use Committee, Academia Sinica. Aliquots of 1×10^6 22Rv1 cells were suspended in 1:1 PBS mixed with Matrigel (BD Biosciences, San Jose, Calif.) and were subcutaneously inoculated into the right flank of each mouse. Once the tumor grew to palpable size one week after 22Rv1 cells were implanted, mice were stochastically assigned to three groups (n=7) that received vehicle control or HDHS at different dosages (0.5 and 2.5 mg/kg/day), by gavage in 0.2 mL of PBS containing 10% DMSO. Tumors were measured twice per week using calipers and their volumes calculated using a standard formula, as follows: width2×length×0.5. Body weight was measured weekly. Mice received 24 doses, and 24 h after the last dose they were sacrificed to harvest plasma and tumors. A portion of each tumor was snap-frozen in liquid nitrogen and stored at −80° C. until needed for western blot analysis of relevant biomarkers, and the remainder was fixed in 10% formalin overnight.
# In order to further understand the dose-effect relationships, the attainable levels of HDHS in plasma and tumors were detected 24 h after the last dose of HDHS regimen in the tested mice. […]. These increases of HDHS concentrations in plasma and tumors were dose-dependent and consistent with the extent of tumor suppression (FIGS. 6A and B).
# PC-3 cells [10] = assay: Morphology of treated cells; details: PC-3, up to 50 μM
structure (smiles),measurement,setting,value
"CC(C)c1cc2c(cc1O)[C@@]1(C)CCCC(C)(C)C1=C(O)C2=O [Compound 2, 6,12-dihydroxyabieta-5,8,11,13-tetraen-7-one]",IC50,LNCaP cells [1],7.5 µM
same,IC50,PC-3 cells [2],13.2 µM
same,G0-G1 phase cell population,LNCaP cells [3]; 2.5 μM,62.6 ± 2.8 %
same,G2-M phase cell population,LNCaP cells [3]; 2.5 μM,21.1 ± 2.4 %
same,S phase cell population,LNCaP cells [3]; 2.5 μM,11.5 ± 2.1 %
same,Sub-G1 phase cell population,LNCaP cells [3]; 2.5 μM,0.8 ± 0.4 %
same,G0-G1 phase cell population,LNCaP cells [3]; 5 μM,66.9 ± 2.0 %
same,G2-M phase cell population,LNCaP cells [3]; 5 μM,18.7 ± 3.5 %
same,S phase cell population,LNCaP cells [3]; 5 μM,8.1 ± 1.8 %
same,Sub-G1 phase cell population,LNCaP cells [3]; 5 μM,3.9 ± 0.7 %
same,G0-G1 phase cell population,LNCaP cells [3]; 10 μM,45.1 ± 3.1 %
same,G2-M phase cell population,LNCaP cells [3]; 10 μM,20.2 ± 2.1 %
same,S phase cell population,LNCaP cells [3]; 10 μM,6.8 ± 2.4 %
same,Sub-G1 phase cell population,LNCaP cells [3]; 10 μM,24.3 ± 3.1 %
same,G0-G1 phase cell population,"PC-3 cells [4]; PC-3, 2.5 μM",52.7 ± 2.0 %
same,G2-M phase cell population,"PC-3 cells [4]; PC-3, 2.5 μM",24.9 ± 2.7 %
same,S phase cell population,"PC-3 cells [4]; PC-3, 2.5 μM",19.2 ± 1.0 %
same,Sub-G1 phase cell population,"PC-3 cells [4]; PC-3, 2.5 μM",2.3 ± 0.7 %
same,G0-G1 phase cell population,"PC-3 cells [4]; PC-3, 5 μM",55.9 ± 2.9 %
same,G2-M phase cell population,"PC-3 cells [4]; PC-3, 5 μM",19.5 ± 2.9 %
same,S phase cell population,"PC-3 cells [4]; PC-3, 5 μM",18.8 ± 1.1 %
same,Sub-G1 phase cell population,"PC-3 cells [4]; PC-3, 5 μM",2.8 ± 0.9 %
same,G0-G1 phase cell population,"PC-3 cells [4]; PC-3, 10 μM",58.2 ± 2.8 %
same,G2-M phase cell population,"PC-3 cells [4]; PC-3, 10 μM",19.2 ± 3.2 %
same,S phase cell population,"PC-3 cells [4]; PC-3, 10 μM",18.0 ± 1.9 %
same,Sub-G1 phase cell population,"PC-3 cells [4]; PC-3, 10 μM",2.1 ± 0.6 %
same,apoptosis (nucleosome release),LNCaP cells [5],significantly induced
same,apoptosis (nucleosome release),PC-3 cells [6],not in PC-3 cells
same,PARP cleavage,LNCaP cells [7],observed
same,caspase-3 and -7 proteolytic cleavage,LNCaP cells [7],activated
same,decrease of anti-apoptotic regulator Bcl-xL level,LNCaP cells [7]; 24 h,~50%
same,increase in p53,LNCaP cells [7]; 24 h,3 fold
same,activation of caspase-3 and -7 or cleavage of PARP,PC-3 cells [8],not detected
same,concentration at 24 h after the last dose,[9]; oral 0.5 mg/kg,450 ± 140 nM
same,concentration at 24 h after the last dose,[9]; oral 2.5 mg/kg,1450 ± 300 nM
same,HDHS level in tumor tissues,[9]; oral 0.5 mg/kg,98.45 ± 19.80 nmol/g
same,HDHS level in tumor tissues,[9]; oral 2.5 mg/kg,154.93 ± 12.97 nmol/g
same,morphology of treated cells,PC-3 cells [10],only cell rounding
